These results are taken from ChEMBL document CHEMBL1148989, “Meroterpenoid MAPKAP (MK2) inhibitors isolated from the indonesian marine sponge Acanthodendrilla sp” (J Nat Prod, 2004).

The target in this test is MAP kinase-activated protein kinase 2 (Homo sapiens, UniProt P49137). The experiment in a line: Inhibition of MK2.

Each structure is given as a SMILES string.

MAP kinase-activated protein kinase 2, sequence (P49137 whole entry): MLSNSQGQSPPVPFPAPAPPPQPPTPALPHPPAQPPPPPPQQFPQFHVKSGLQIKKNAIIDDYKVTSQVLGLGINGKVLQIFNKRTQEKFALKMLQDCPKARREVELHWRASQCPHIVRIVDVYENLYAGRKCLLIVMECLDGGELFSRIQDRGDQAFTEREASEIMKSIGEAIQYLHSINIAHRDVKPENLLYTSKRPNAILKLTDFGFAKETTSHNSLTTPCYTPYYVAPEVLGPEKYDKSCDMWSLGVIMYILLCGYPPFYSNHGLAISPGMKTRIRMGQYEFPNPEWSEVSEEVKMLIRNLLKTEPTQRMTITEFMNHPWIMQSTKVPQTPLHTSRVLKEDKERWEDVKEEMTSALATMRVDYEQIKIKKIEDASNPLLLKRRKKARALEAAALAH

What is called IC50 is the concentration needed to halve the response being measured. As to `CC1=CC[C@H]2[C@@](C)(CC[C@H]3C(C)(C)CCC[C@]23C)[C@@H]1Cc1cc(C(=O)O)ccc1O`, the IC50 came to 20 µM.
To `CC1=C(CC/C(C)=C/Cc2cc(C(=O)O)ccc2O)[C@@]2(C)CCCC(C)(C)[C@@H]2CC1` belongs 9.6 µM.
